Test results taken from the supplement of paper PMC10307832.

Assays:
Test in all cases: relative viability (nuclei count vs DMSO), 5 days (fraction); higher = more cells survive
JZL-184 = compound: C1CN(CCC1C(C2=CC3=C(C=C2)OCO3)(C4=CC5=C(C=C4)OCO5)O)C(=O)OC6=CC=C(C=C6)[N+](=O)[O-] [JZL-184]
Procedure, shortened: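 After an overnight hold at 37 °C, lung cancer cell lines in 1536-well plates were pinned with five library-drug doses (not always all listed), each √10 from the next, on vehicle-anchored plates. The cells stayed 5 days without fresh medium, then a one-step fix, permeabilisation and Hoechst stain preceded 4× imaging and MetaXpress nuclear counts. A plate passed only with control CV under 25% and at least one doubling. Viability is the median, over plates, of treated-well nuclei relative to vehicle-well nuclei.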

JZL-184 + Navitoclax = compound: C1CN(CCC1C(C2=CC3=C(C=C2)OCO3)(C4=CC5=C(C=C4)OCO5)O)C(=O)OC6=CC=C(C=C6)[N+](=O)[O-] [JZL-184] + CC1(C)CCC(c2ccc(Cl)cc2)=C(CN2CCN(c3ccc(C(=O)NS(=O)(=O)c4ccc(N[C@H](CCN5CCOCC5)CSc5ccccc5)c(S(=O)(=O)C(F)(F)F)c4)cc3)CC2)C1 [Navitoclax] (partner 0.5 µM)
Procedure, shortened: (§1)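 Lung cancer cell lines were seeded in 1536-well plates and dosed by pin tool the next day, with either a single drug or a fixed anchor-drug dose combined with five library-drug doses (not always all listed) spaced in √10 steps. Five days later, one step fixed the cells and stained their nuclei (final 0.05% Triton X-100, 1% formaldehyde, 1 ug/ml Hoechst), and nuclei were counted on 4× images. Relative viability is the nuclei count in treated wells divided by the count in vehicle wells, and each value is the median of duplicate plates.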

JZL-184 + Lapatinib = compound: C1CN(CCC1C(C2=CC3=C(C=C2)OCO3)(C4=CC5=C(C=C4)OCO5)O)C(=O)OC6=CC=C(C=C6)[N+](=O)[O-] [JZL-184] + CS(=O)(=O)CCNCc1ccc(-c2ccc3ncnc(Nc4ccc(OCc5cccc(F)c5)c(Cl)c4)c3c2)o1 [Lapatinib] (partner 2 µM)
Procedure, shortened: as §1

JZL-184 + Dasatinib = compound: C1CN(CCC1C(C2=CC3=C(C=C2)OCO3)(C4=CC5=C(C=C4)OCO5)O)C(=O)OC6=CC=C(C=C6)[N+](=O)[O-] [JZL-184] + Cc1nc(Nc2ncc(C(=O)Nc3c(C)cccc3Cl)s2)cc(N2CCN(CCO)CC2)n1 [Dasatinib] (partner 0.075 µM)
Procedure, shortened: as §1

JZL-184 + Vorinostat = compound: C1CN(CCC1C(C2=CC3=C(C=C2)OCO3)(C4=CC5=C(C=C4)OCO5)O)C(=O)OC6=CC=C(C=C6)[N+](=O)[O-] [JZL-184] + O=C(CCCCCCC(=O)Nc1ccccc1)NO [Vorinostat] (partner 1 µM)
Procedure, shortened: as §1

| Cell Line | relative viability (JZL-184; 0.04 µM) | relative viability (JZL-184; 0.4 µM) | relative viability (JZL-184; 1.265 µM) | relative viability (JZL-184; 4 µM) | relative viability (JZL-184 + Navitoclax; first compound 0.04 µM) | relative viability (JZL-184 + Navitoclax; first compound 0.4 µM) | relative viability (JZL-184 + Navitoclax; first compound 1.265 µM) | relative viability (JZL-184 + Navitoclax; first compound 4 µM) | relative viability (JZL-184 + Lapatinib; first compound 0.04 µM) | relative viability (JZL-184 + Lapatinib; first compound 0.4 µM) | relative viability (JZL-184 + Lapatinib; first compound 1.265 µM) | relative viability (JZL-184 + Lapatinib; first compound 4 µM) | relative viability (JZL-184 + Dasatinib; first compound 0.04 µM) | relative viability (JZL-184 + Dasatinib; first compound 0.4 µM) | relative viability (JZL-184 + Dasatinib; first compound 1.265 µM) | relative viability (JZL-184 + Dasatinib; first compound 4 µM) | relative viability (JZL-184 + Vorinostat; first compound 0.04 µM) | relative viability (JZL-184 + Vorinostat; first compound 0.4 µM) | relative viability (JZL-184 + Vorinostat; first compound 1.265 µM) | relative viability (JZL-184 + Vorinostat; first compound 4 µM) |
| --- | --- | --- | --- | --- | --- | --- | --- | --- | --- | --- | --- | --- | --- | --- | --- | --- | --- | --- | --- | --- |
| NCI-H1395 | 0.862 | 0.84 | 1.03 | 0.816 | 1.49 | 1.22 | 1.18 | 1.02 | 0.997 | 0.953 | 0.91 | 0.995 | 0.424 | 0.435 | 0.414 | 0.404 | 0.651 | 0.621 | 0.811 | 0.683 |
| NCI-H2087 | 1.15 | 0.99 | 1.04 | 1.11 | 1 | 0.997 | 1.18 | 0.996 | 1.29 | 0.824 | 0.99 | 1.18 | 0.905 | 0.905 | 0.716 | 0.875 | 0.969 | 0.742 | 0.807 | 1 |
| NCI-H838 | 1.11 | 1.03 | 1.04 | 0.984 | 1.39 | 1.22 | 1.21 | 1.11 | 1.19 | 1.04 | 1.16 | 0.94 | 0.286 | 0.307 | 0.289 | 0.3 | 0.791 | 0.72 | 0.738 | 0.636 |
| NCI-H1793 | 0.771 | 0.735 | 1.1 | 0.845 | 0.351 | 0.426 | 0.502 | 0.38 | 0.853 | 0.492 | 0.812 | 0.422 | 0.511 | 0.36 | 0.41 | 0.369 | 0.663 | 0.571 | 0.963 | 0.64 |
